Assay results from publication PMC6199744, “Development of Chemical Proteomics for the Folateome and Analysis of the Kinetoplastid Folateome” (ACS Infectious Diseases, 2018).

System: L. major lysate proteins
Assay: Multitargeted bead mixture chemoproteomics, single concentration competition, proteome-wide
Type: binding
Settings: for fold change / fold change relative to vehicle control: vehicle control = 1; for fold change relative to vehicle control: competition with free ligand

CCCCCCOc1cccc(Cc2cnc(N)nc2N)c1 [compound 2]
fold change vs vehicle control (protein LMJF.22.0730 HY[…], CONSERVED): 1.07
fold change (protein LMJF.22.1460 I/6 AUTOANTIGEN-LIKE PROTEIN): 1.1
fold change vs vehicle control (protein LMJF.22.1540 ALANYL-TRNA SYNTHETASE, PUTATIVE): 1.04
fold change vs vehicle control (protein LMJF.23.0370 […] OXIDASE SUBUNIT 10, PUTATIVE): 1.09
fold change (protein LMJF.23.0830 NA/H ANTIPORTER-LIKE PROTEIN): 0.96
fold change (protein LMJF.23.1020 HY[…], UNKNOWN FUNCTION): 1.14
fold change (protein LMJF.23.1220 T-COMPLEX PROTEIN 1, GAMMA SUBUNIT, PUTATIVE): 1.08
fold change vs vehicle control (protein LMJF.24.0140 ANKYRIN/TPR REPEAT PROTEIN): 1.09
fold change (protein LMJF.24.0280 DYNEIN INTERMEDIATE-CHAIN-LIKE PROTEIN): 0.94
fold change (protein LMJF.24.0770 MALIC ENZYME, PUTATIVE): 1.06
fold change relative to vehicle control (protein LMJF.24.1510 IGE-DEPENDENT HISTAMINE-RELEASING FACTOR, PUTATIVE): 1.53
fold change vs vehicle control (protein LMJF.24.1630, SUCCINATE DEHYDROGENASE FLAVOPROTEIN, PUTATIVE): 1
fold change vs vehicle control (protein LMJF.24.1840 LYSOPHOSPHOLIPASE, PUTATIVE): 1.01
fold change relative to vehicle control (protein LMJF.24.2060 TRANSKETOLASE): 0.99
fold change (protein LMJF.24.2250 FATTY-ACID DESATURASE, PUTATIVE): 1.01
fold change vs vehicle control (protein LMJF.25.0120 ELECTRON TRANSFER FLAVOPROTEIN, PUTATIVE): 1.07
fold change vs vehicle control (protein LMJF.25.0260 DYNEIN LIGHT CHAIN 1, CYTOPLASMIC, PUTATIVE): 1.15
fold change relative to vehicle control (protein LMJF.25.0910 CYCLOPHILIN A): 1.57
fold change vs vehicle control (protein LMJF.25.1180, ATPASE BETA SUBUNIT, PUTATIVE): 1.17
fold change (protein LMJF.25.1610 HY[…], CONSERVED): 1.09
fold change (protein LMJF.25.1620 HY[…], CONSERVED): 1.15
fold change vs vehicle control (protein LMJF.26.1240 HEAT SHOCK PROTEIN 70-RELATED PROTEIN): 1.01
fold change vs vehicle control (protein LMJF.26.1710 […] OXIDASE SUBUNIT V, PUTATIVE): 1.08
fold change vs vehicle control (protein LMJF.26.1960 HY[…], CONSERVED): 1.05
fold change vs vehicle control (protein LMJF.26.2000 HYPOTHETICAL PROTEIN, CONSERVED): 1.23
fold change vs vehicle control (protein LMJF.27.0420 RIBOKINASE, PUTATIVE): 1.18
fold change vs vehicle control (protein LMJF.27.1060 CYSTEINE DESULFURASE, PUTATIVE): 0.93
fold change (protein LMJF.27.1310 ARGINYL-TRNA SYNTHETASE, PUTATIVE): 0.98
fold change vs vehicle control (protein LMJF.27.2400 HEAT SHOCK PROTEIN DNAJ, PUTATIVE): 0.96
fold change vs vehicle control (protein LMJF.28.0110 […] 3 SUBUNIT, PUTATIVE): 1.07
fold change vs vehicle control (protein LMJF.28.0930 HY[…], CONSERVED): 1.12
fold change vs vehicle control (protein LMJF.28.0950 HY[…], CONSERVED): 1.03
fold change vs vehicle control (protein LMJF.28.1950 X-PRO, DIPEPTIDYL-PEPTIDASE,SERINE PEPTIDASE, CLAN SC, FAMILY S15, PUTATIVE): 1.13
fold change relative to vehicle control (protein LMJF.28.2770 HEAT-SHOCK PROTEIN HSP70, PUTATIVE): 1.25
fold change (protein LMJF.29.0060 TRYPTOPHANYL-TRNA SYNTHETASE, PUTATIVE): 1.06
fold change (protein LMJF.29.0820 CYSTEINE PEPTIDASE C (CPC)): 0.82
fold change relative to vehicle control (protein LMJF.29.0850 HIGH MOBILITY GROUP PROTEIN HOMOLOG TDP-1, PUTATIVE): 1.3
fold change vs vehicle control (protein LMJF.29.1160 TRYPAREDOXIN): 1.04
fold change (protein LMJF.29.1760 PARAFLAGELLAR ROD PROTEIN 1D, PUTATIVE): 0.97
fold change vs vehicle control (protein LMJF.29.1780 DIPHTHAMIDE SYNTHESIS PROTEIN, PUTATIVE): 0.98
fold change vs vehicle control (protein LMJF.29.2240 AMINOPEPTIDASE, PUTATIVE): 1.11
fold change (protein LMJF.29.2310 ENOYL-COA HYDRATASE/ISOMERASE-LIKE PROTEIN): 1.08
fold change (protein LMJF.29.2860 40S RIBOSOMAL PROTEIN S19-LIKE PROTEIN): 1.19
fold change vs vehicle control (protein LMJF.30.0850 SURFACE PROTEIN AMASTIN, PUTATIVE): 1.16
fold change (protein LMJF.30.1250 PYRIDOXAL KINASE, PUTATIVE): 1.01
fold change vs vehicle control (protein LMJF.30.3190 3-HYDROXY-3-METHYLGLUTARYL-COA REDUCTASE): 1.04
fold change vs vehicle control (protein LMJF.30.3520 S-ADENOSYL[…]): 1.05
fold change vs vehicle control (protein LMJF.31.0440 CYTOSKELETON-[…] CAP5 5, PUTATIVE): 1
fold change (protein LMJF.31.1130 N-ACYL-L-AMINO ACID AMIDOHYDROLASE, PUTATIVE): 0.8
fold change vs vehicle control (protein LMJF.31.1640 THIOLASE PROTEIN-LIKE PROTEIN): 1.14
fold change (protein LMJF.31.1800 AMINO ACID PERMEASE): 1.08
fold change (protein LMJF.31.2250 3,2-TRANS-ENOYL-COA ISOMERASE, MIT[…], PUTATIVE): 0.92
fold change vs vehicle control (protein LMJF.31.2790 ADP-RI[…], PUTATIVE): 1.1
fold change (protein LMJF.31.3130 […]-COA CARBOXYLASE BIOTINYLATED […]-LIKE PROTEIN): 1.03
fold change (protein LMJF.32.0010 HYPOTHETICAL PROTEIN, CONSERVED): 0.82
fold change vs vehicle control (protein LMJF.32.0400 ATP-DEPENDENT RNA HELICASE, PUTATIVE): 1.03
fold change vs vehicle control (protein LMJF.32.0520 PROFILIN, PUTATIVE): 1
fold change (protein LMJF.32.1000 […]-COMPLEX PROTEIN, PUTATIVE): 1.02
fold change vs vehicle control (protein LMJF.32.3010 HYPOTHETICAL PROTEIN, CONSERVED,LEUCINE-RICH REPEAT PROTEIN, PUTATIVE): 0.99
fold change vs vehicle control (protein LMJF.32.3870 MYOSIN XXI): 0.91
fold change vs vehicle control (protein LMJF.33.0890, HY[…], CONSERVED): 1.05
fold change vs vehicle control (protein LMJF.33.1070 HY[…], UNKNOWN FUNCTION): 1.03
fold change (protein LMJF.33.1330 CYSTEINE CONJUGATE BETA-LYASE, AMINOTRANSFERASE- LIKE PROTEIN): 1.33
fold change (protein LMJF.33.1610 PEPTIDASE M20/M25/M40, PUTATIVE): 1
fold change relative to vehicle control (protein LMJF.33.1630 CYCLOPHILIN 4, PUTATIVE): 1.35
fold change vs vehicle control (protein LMJF.33.2300 UDP-GLC 4'-EPIMERASE, PUTATIVE): 1.15
fold change vs vehicle control (protein LMJF.33.2390 HEAT SHOCK PROTEIN, PUTATIVE): 1.12
fold change (protein LMJF.33.2410 HY[…], CONSERVED): 1.02
fold change (protein LMJF.33.3150 40S RIBOSOMAL PROTEIN S13, PUTATIVE): 1.22
fold change (protein LMJF.34.3500 RUVB-LIKE 1 DNA HELICASE, PUTATIVE): 1.2
fold change (protein LMJF.34.3670 VACUOLAR ATP SYNTHASE CATALYTIC SUBUNIT A, PUTATIVE): 1.09
fold change (protein LMJF.34.3740 SERINE PALMITOYLTRANSFERASE-LIKE PROTEIN): 0.95
fold change (protein LMJF.34.4120 HYPOTHETICAL PROTEIN, CONSERVED): 0.91
fold change vs vehicle control (protein LMJF.34.4370 20S […] 7 SUBUNIT, (PUTATIVE)): 1.06
fold change (protein LMJF.35.0370 ATP-DEPENDENT DEAD-BOX RNA HELICASE, PUTATIVE): 1.03
fold change vs vehicle control (protein LMJF.35.1380, MIT[…], BETA SUBUNIT, PUTATIVE): 1.09
fold change vs vehicle control (protein LMJF.35.1410 THREONYL-TRNA SYNTHETASE, PUTATIVE): 0.97
fold change vs vehicle control (protein LMJF.35.1720 CYCLOPHILIN 14, PUTATIVE): 1.13
fold change (protein LMJF.35.2500 HY[…], CONSERVED): 1.03
fold change (protein LMJF.35.2730 ACYL-COA DEHYDROGENASE, PUTATIVE): 1.02
fold change relative to vehicle control (protein LMJF.35.3010 […],TRYPANOTHIONE-DEPENDENT […]): 1.16
fold change vs vehicle control (protein LMJF.35.3100 ATP-DEPENDENT RNA HELICASE, PUTATIVE): 1.09
fold change vs vehicle control (protein LMJF.35.3340 6-phosphogluconate dehydrogenase): 1.05
fold change (protein LMJF.35.3700 GIM5A PROTEIN, PUTATIVE,[…] PROTEIN): 1.04
fold change vs vehicle control (protein LMJF.35.3840 PROTEASOME BETA 2 SUBUNIT, PUTATIVE): 0.82
fold change vs vehicle control (protein LMJF.35.3860 T-COMPLEX PROTEIN 1, ETA SUBUNIT, PUTATIVE): 1.06
fold change (protein LMJF.35.4550 HYPOTHETICAL PROTEIN, CONSERVED): 0.88
fold change (protein LMJF.35.4770 CYCLOPHILIN 40): 0.93
fold change (protein LMJF.35.4850 PROTEASOME ALPHA 1 SUBUNIT, PUTATIVE): 1.1
fold change (protein LMJF.35.4860 HYPOTHETICAL PROTEIN, CONSERVED): 0.97
fold change relative to vehicle control (protein LMJF.35.5330 ISOPENTENYL-D[…]-ISOMERASE, PUTATIVE,ISOMERASE, PUTATIVE): 1.17
fold change vs vehicle control (protein LMJF.36.0180 ELONGATION FACTOR 2): 1.2
fold change vs vehicle control (protein LMJF.36.0620 HYPOTHETICAL PROTEIN, CONSERVED): 1.47
fold change vs vehicle control (protein LMJF.36.0990 40S RIBOSOMAL PROTEIN S10, PUTATIVE): 1.17
fold change vs vehicle control (protein LMJF.36.2020 CHAPERONIN HSP60, MIT[…]): 1.01
fold change vs vehicle control (protein LMJF.36.3460 HYPOTHETICAL PROTEIN, CONSERVED): 0.88
fold change (protein LMJF.36.3760 60S RIBOSOMAL PROTEIN L10A, PUTATIVE): 1.2
fold change vs vehicle control (protein LMJF.36.3840 GLYCYL TRNA SYNTHETASE, PUTATIVE): 1.06
fold change vs vehicle control (protein LMJF.36.4170 OXIDOREDUCTASE, PUTATIVE): 1.05
fold change vs vehicle control (protein LMJF.36.5010 40S RIBOSOMAL PROTEIN SA, PUTATIVE): 1.14
fold change (protein LMJF.36.5390 PHOSPHORIBOSYLPYROPHOSPHATE SYNTHETASE, PUTATIVE): 0.96
fold change vs vehicle control (protein LMJF.36.5620 ISOLEUCYL-TRNA SYNTHETASE, PUTATIVE): 1.15
fold change vs vehicle control (protein LMJF.36.6430 PROTEIN TRANSPORT PROTEIN SEC23-LIKE PROTEIN): 1.05
fold change (protein LMJF.36.6760 HYPOTHETICAL PROTEIN, CONSERVED): 1.1
fold change vs vehicle control (protein LMJF.36.6910 T-COMPLEX PROTEIN 1, THETA SUBUNIT, PUTATIVE): 1.05
fold change vs vehicle control (protein LMJF.36.6940 disulfide isomerase PDI): 1.3
fold change vs vehicle control (protein LMJF.[…] […] EXOPOLYPHOSPHATASE, PUTATIVE): 0.78
